The target of test [1] is T1, histamine H4 receptor (Homo sapiens, UniProt Q9H3N8).
T1 construct: expressed in transfected cells; host or cells: CHO cells
The test can be described thus: H4 binding, method 1 ([3H]-histamine filtration binding on CHO cell membranes). The following applies: H4 binding, method 1; Ki calculated from IC50 (Cheng-Prussoff). In short, it runs like this:
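Membranes from CHO cells expressing human H4 receptor (20-35 μg/well) incubated 90 min at room temperature with 3 nM [3H]-histamine in 50 mM Tris-HCl pH 7.4, ± competitor. Bound label separated by filtration on PEI-soaked GF/B filters and counted by scintillation; non-specific binding with 10 μM JNJ7777120.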

In test [2] the target is T1, histamine H4 receptor. The test can be described thus: H4 binding, method 2 ([3H]-histamine binding with Ysi WGA beads on CHO cell membranes). The following applies: for Ki: H4 binding, method 2, Ki calculated from IC50 (Cheng-Prussoff). The method, then:
Cell pellets from CHO cells expressing the histamine H4 receptor were homogenised in ice-cold 50 mM Tris-HCl/0.5 mM CaCl2 buffer containing a protease inhibitor cocktail (Roche®, United Kingdom) using a ground glass homogeniser. Homogenates were centrifuged at 48000 g for 30 min at 4° C. The membrane pellet was resuspended in fresh buffer and the centrifugation step was repeated as described above. The membrane pellet was resuspended in 50 mM Tris-HCl in the same volume as the original cell pellet. Aliquots of membrane preparations were stored at −80° C. and were used for [^3H]-Histamine binding experiments.
Cell membranes (15 μg/well) were pre-incubated for 120 min shaking at 4° C. with Ysi WGA beads (250 μg/well) in 50 mM Tris-HCl (pH 7.4) followed by centrifugation at 1500 rpm for 5 minutes and resuspension in 50 mM Tris-HCl (pH 7.4). The membrane/bead mixture (15 μg membrane/250 μg beads well) was incubated for 90 minutes shaking at room temperature with 6.5 nM [2,5-^3H] Histamine dihydrochloride (30-60 Ci/mmol) in 50 mM Tris-HCl (pH 7.4), with or without competing H4 ligands. Non-specific binding was defined with 10 μM JNJ7777120. Bound radiolabel was determined using scintillation counting techniques after 90 minutes.

T1 sequence (Q9H3N8 whole entry): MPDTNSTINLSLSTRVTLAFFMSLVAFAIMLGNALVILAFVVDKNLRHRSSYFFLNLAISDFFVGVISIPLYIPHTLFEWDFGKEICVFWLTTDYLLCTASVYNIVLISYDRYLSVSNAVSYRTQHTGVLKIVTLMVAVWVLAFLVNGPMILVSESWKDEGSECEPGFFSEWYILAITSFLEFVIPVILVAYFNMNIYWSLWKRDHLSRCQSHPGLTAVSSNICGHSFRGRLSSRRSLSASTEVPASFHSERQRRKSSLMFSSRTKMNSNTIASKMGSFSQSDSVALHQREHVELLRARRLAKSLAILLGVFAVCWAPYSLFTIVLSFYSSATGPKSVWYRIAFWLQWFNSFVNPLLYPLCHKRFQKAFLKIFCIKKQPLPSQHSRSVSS

What is called Ki is a dissociation constant, usually derived from enzyme kinetics or from competition with a known ligand. With `CC(C)(C)CNc1cc(N2C[C@H]3CCCN[C@H]3C2)nc(N)n1` (racemic) [Example 30, N^4-(2,2-Dimethylpropyl)-6-[(4aR*,7aR*)-octahydro-6H-pyrrolo[3,4-b]pyridin-6-yl] pyrimidine-2,4-diamine], the values for the Ki on histamine H4 receptor [1] and at histamine H4 receptor [2] (Method 2 (Ki (nM))) were 3.06 nM and 19.3 nM, respectively.
On to `CN1CCN(c2cc(NCCC(C)(C)C)ncn2)CC1` [Example 1, N-(3,3-Dimethylbutyl)-6-(4-methylpiperazin-1-yl)pyrimidin-4-amine], for which the inhibition constant Ki at histamine H4 receptor [1] is 82.3 nM; on histamine H4 receptor [2] (read-out: Method 2 (Ki (nM))), 335 nM.
On to `C[C@H]1CN(c2cc(NCC(C)(C)C)nc(N)n2)CCN1` [Example 96, N^4-(2,2-Dimethylpropyl)-6-[(3S)-3-methylpiperazin-1-yl]pyrimidine-2,4-diamine], for which the inhibitory constant (Ki) on histamine H4 receptor [2] (read-out: Method 2 (Ki (nM))) is 3.77 nM.
As for `CCNc1cc(N2CCN[C@H](C)C2)nc(N)n1` [Example 97, N^4-Ethyl-6-[(3R)-3-methylpiperazin-1-yl]pyrimidine-2,4-diamine], on histamine H4 receptor [2] (Method 2 (Ki (nM))), the inhibition constant (Ki) is 43.7 nM.
Consider `CCNc1cc(N2CCN[C@@H](C)C2)nc(N)n1` [Example 98, N^4-Ethyl-6-[(3S)-3-methylpiperazin-1-yl]pyrimidine-2,4-diamine], for which, at histamine H4 receptor [2] (Method 2 (Ki (nM))), the Ki is 56.2 nM.
`CC(C)CCNc1cc(N2CCN(C)CC2)nc(N)n1` [Example 108, N^4-(3-Methylbutyl)-6-(4-methylpiperazin-1-yl)pyrimidine-2,4-diamine]: on histamine H4 receptor [2] (read-out: Method 2 (Ki (nM))), the inhibition constant Ki was 8.42 nM.
For `CN[C@@H]1CCN(c2cc(NCCC(C)(C)C)ncn2)C1` [Example 109, N-(3,3-Dimethylbutyl)-6-[(3R)-3-(methylamino)pyrrolidin-1-yl]pyrimidin-4-amine], the inhibition constant (Ki) on histamine H4 receptor [2] (read-out: Method 2 (Ki (nM))) was 42.7 nM.
For `COCCNc1cc(N2CCN(C)CC2)ncn1` [Example 110, N-(2-Methoxyethyl)-6-(4-methylpiperazin-1-yl)pyrimidin-4-amine], the inhibition constant Ki at histamine H4 receptor [2] (read-out: Method 2 (Ki (nM))) is 829 nM.
Consider `CN1CCN(c2cc(NC[C@@H]3CCCO3)ncn2)CC1` [Example 112, 6-(4-Methylpiperazin-1-yl)-N-[(2S)-tetrahydrofuran-2-ylmethyl]pyrimidin-4-amine], for which, at histamine H4 receptor [2] (read-out: Method 2 (Ki (nM))), the inhibitory constant (Ki) is 635 nM.
Still for that read-out and setting: the same measure for `CN1CCN(c2cc(NC[C@H]3CCCO3)ncn2)CC1` [Example 113, 6-(4-Methylpiperazin-1-yl)-N-[(2R)-tetrahydrofuran-2-ylmethyl]pyrimidin-4-amine]: 1480 nM.
Consider `CN1CCN(c2cc(N3CCCC3)ncn2)CC1` [Example 114, 4-(4-Methylpiperazin-1-yl)-6-pyrrolidin-1-ylpyrimidine], for which, at histamine H4 receptor [2] (read-out: Method 2 (Ki (nM))), the Ki is 1030 nM.
As to `CN1CCN(c2cc(NCCC(F)(F)F)ncn2)CC1` [Example 115, 6-(4-Methylpiperazin-1-yl)-N-(3,3,3-trifluoropropyl)pyrimidin-4-amine], the Ki on histamine H4 receptor [2] (read-out: Method 2 (Ki (nM))) was 494 nM.
Still for that read-out and setting: the same measure for `Cc1c(NCC(C)C)ncnc1N1CCN(C)CC1` [Example 116, N-Isobutyl-5-methyl-6-(4-methylpiperazin-1-yl)pyrimidin-4-amine]: 426 nM; for `CCNc1cc(N2C[C@H]3CN(C)C[C@H]3C2)ncn1` [Example 117, N-Ethyl-6-[(3aR*,6aS*)-5-methylhexahydropyrrolo[3,4-c]pyrrol-2(1H)-yl]pyrimidin-4-amine]: 1620 nM.
As to `CC(C)(C)CCNc1cc(N2CC(N)C2)ncn1` [Example 118, 6-(3-Aminoazetidin-1-yl)-N-(3,3-dimethylbutyl)pyrimidin-4-amine], the inhibitory constant (Ki) on histamine H4 receptor [2] (read-out: Method 2 (Ki (nM))) is 1090 nM.
For the compound `C[C@@H]1CN(c2cc(NCCC(C)(C)C)nc(N)n2)CCN1C` [Example 124, N^4-(3,3-Dimethylbutyl)-6-[(3R)-3,4-dimethylpiperazin-1-yl]pyrimidine-2,4-diamine], the inhibition constant (Ki) at histamine H4 receptor [2] (read-out: Method 2 (Ki (nM))) is 537 nM.
Still for that read-out and setting: the same measure for `CC(C)(C)CNc1cc(N2C[C@@H]3[C@@H](N)[C@@H]3C2)nc(N)n1` [Example 126, 6-[(1R*,5S*,6s*)-6-Amino-3-azabicyclo[3.1.0]hex-3-yl]-N^4-(2,2-dimethylpropyl)pyrimidine-2,4-diamine]: 611 nM.
Turning to `CC(C)(C)CNc1cc(N2CCN3CCCC3C2)nc(N)n1` (stereo not shown) [Example 141, N^4-(2,2-Dimethylpropyl)-6-(hexahydropyrrolo[1,2-a]pyrazin-2(1H)-yl)pyrimidine-2,4-diamine], on histamine H4 receptor [2] (Method 2 (Ki (nM))), the inhibition constant Ki was 4.97 nM.
On to `CC(C)(C)CNc1cc(N2CCC(N3CCCC3)C2)nc(N)n1` (stereo not shown) [Example 327, 6-[(3-S)-1,3′-Bipyrrolidin-1′-yl]-N^4-(2,2-dimethylpropyl)pyrimidine-2,4-diamine], for which the Ki on histamine H4 receptor [2] (read-out: Method 2 (Ki (nM))) is 376 nM.
On the same count and under the same terms, the same measure for `CC(C)CCNc1cc(N[C@@H]2CCNC2)ncn1` [Example 329, N-(3-Methylbutyl)-N′-[(3R)-pyrrolidin-3-yl]pyrimidine-4,6-diamine]: 1420 nM; for `CN1CCN(c2cc(NCCC(C)(C)C)nc(N(C)C)n2)CC1` [Example 330, N^4-(3,3-Dimethylbutyl)-N^2,N^2-dimethyl-6-(4-methylpiperazin-1-yl)pyrimidine-2,4-diamine]: 1440 nM.
Still for that read-out and setting: under `Cc1c(NC(C)C)ncnc1N1CCN(C)CC1` [Example 331, N-isoPropyl-5-methyl-6-(4-methylpiperazin-1-yl)pyrimidin-4-amine] stands 2670 nM; under `CC(C)(C)CCNc1cc(N2CC[C@H](N3CCCC3)C2)nc(N)n1` [Example 332, 6-[(3′S)-1,3′-Bipyrrolidin-1′-yl]-N^4-(3,3-dimethylbutyl)pyrimidine-2,4-diamine], 2690 nM; under `CC(C)(C)CCNc1cc(N2CC3C(N)C3C2)nc(N)n1` (stereo not drawn) [Example 333, 6-[(1R*,5S*,6s*)-6-Amino-3-azabicyclo[3.1.0]hex-3-yl]-N^4-(3,3-dimethylbutyl)pyrimidine-2,4-diamine], 3120 nM.
In the case of `CN1CCN(c2cc(N(C)CC3CC3)ncn2)CC1` [Example 334, N-(Cyclopropylmethyl)-N-methyl-6-(4-methylpiperazin-1-yl)pyrimidin-4-amine], the inhibitory constant (Ki) at histamine H4 receptor [2] (read-out: Method 2 (Ki (nM))) was 5070 nM.
Same read-out and setting: the same measure for `COCCNc1cc(N[C@@H]2CCNC2)ncn1` [Example 335, N-(2-Methoxyethyl)-N′-[(3R)-pyrrolidin-3-yl]pyrimidine-4,6-diamine]: 5350 nM.
As to `CNC1CN(c2cc(N3CCCC3)ncn2)C1` [Example 336, N-Methyl-1-(6-pyrrolidin-1-ylpyrimidin-4-yl)azetidin-3-amine], on histamine H4 receptor [2] (read-out: Method 2 (Ki (nM))), the Ki was 6330 nM.
Consider `c1ccc(CNc2cc(N[C@@H]3CCNC3)ncn2)cc1` [Example 337, N-Benzyl-N′-[(3R)-pyrrolidin-3-yl]pyrimidine-4,6-diamine], for which the Ki at histamine H4 receptor [2] (read-out: Method 2 (Ki (nM))) is 7220 nM.
Take `CC(C)(C)CCNc1cc(N[C@H]2CCN(Cc3ccccc3)C2)nc(N)n1` [Example 338, N^4-[(3S)-1-Benzylpyrrolidin-3-yl]-N6-(3,3-dimethylbutyl)pyrimidine-2,4,6-triamine]: on histamine H4 receptor [2] (read-out: Method 2 (Ki (nM))), the inhibition constant Ki is 7930 nM.
On to `CNc1nc(NCCC(C)(C)C)cc(N2CCN(C)CC2)n1` [Example 339, N^4-(3,3-Dimethylbutyl)-N^2-methyl-6-(4-methylpiperazin-1-yl)pyrimidine-2,4-diamine], for which, at histamine H4 receptor [2] (read-out: Method 2 (Ki (nM))), the Ki was 9070 nM.
As for `CC(C)(C)CCNc1cc(N2CCC(N)CC2)ncn1` [Example 340, 6-(4-Aminopiperidin-1-yl)-N-(3,3-dimethylbutyl)pyrimidin-4-amine], the “Method 2, % at 40 μM” value on histamine H4 receptor [2] came out at 50% at 40 μM.
`c1nc(NC[C@@H]2CCCO2)cc(N[C@@H]2CCNC2)n1` [Example 341, N-[(3R)-Pyrrolidin-3-yl]-N′-[(2S)-tetrahydrofuran-2-ylmethyl]pyrimidine-4,6-diamine]: at histamine H4 receptor [2] (read-out: Method 2 (Ki (nM))), the inhibitory constant (Ki) is 16300 nM.
In the case of `CC(C)(C)CCNc1cc(N2CC[C@H](N3CCCC3)C2)ncn1` [Example 342, 6-[(3′S)-1,3′-Bipyrrolidin-1′-yl]-N-(3,3-dimethylbutyl)pyrimidin-4-amine], the “Method 2, % at 40 μM” value at histamine H4 receptor [2] is given as 13% at 40 μM.
With `CN1CCC(Nc2cc(NCCC(C)(C)C)ncn2)CC1` [Example 343, N-(3,3-Dimethylbutyl)-N′-(1-methylpiperidin-4-yl)pyrimidine-4,6-diamine], the “Method 2, % at 40 μM” value at histamine H4 receptor [2] was determined as 53% at 40 μM.
For the compound `COCCNc1cc(N[C@H]2CCNC2)ncn1` [Example 344, N-(2-Methoxyethyl)-N′-[(3S)-pyrrolidin-3-yl]pyrimidine-4,6-diamine], on histamine H4 receptor [2], the “Method 2, % at 40 μM” value turned out to be 40% at 40 μM.
Take `c1nc(NC[C@H]2CCCO2)cc(N[C@@H]2CCNC2)n1` [Example 345, N-[(3R)-Pyrrolidin-3-yl]-N′-[(2R)-tetrahydrofuran-2-ylmethyl]pyrimidine-4,6-diamine]: the “Method 2, % at 40 μM” value at histamine H4 receptor [2] worked out at 49% at 40 μM.
For the compound `c1ccc(CCNc2cc(N[C@@H]3CCNC3)ncn2)cc1` [Example 346, N-(2-Phenylethyl)-N′-[(3R)-pyrrolidin-3-yl]pyrimidine4,6-diamine], on histamine H4 receptor [2] (read-out: Method 2 (Ki (nM))), the Ki was 38400 nM.
Still for that read-out and setting: the same measure for “N-Methyl-6-[3-(methylamino)azetidin-1- yl]pyrimidin-4-amine [Example 58]”: 301 nM.

Source of the values: patent US7943628B2, “Pyrimidine derivatives” (Pfizer Limited, priority 2005, dated 2011).
